According to patent US8211892B2, “Tetrahydroquinoxaline urea derivatives” (Sanofi-Aventis, priority 2008, dated 2012):

What was measured:
[1] = target: T1, recombinant 11βHSD1 protein (Homo sapiens, UniProt P28845); assay: SPA (Scintillation Proximity Assay) test of in vitro inhibition of the enzyme 11βHSD1, 384-well format; assay type: biochemical; settings: 3H-cortisone and NADPH, SPA beads, cortisol formed; read-out: IC50 (concentration which inhibits 50% of the activity of 11βHSD1)
T1 construct: made in house; host or cells: Saccharomyces cerevisiae
Source text: The compounds according to the invention formed the subject of pharmacological assays which make it possible to determine their inhibiting effect on the enzyme 11βHSD1, which is involved in the metabolism of lipids and the metabolism of glucose.
These assays consisted in measuring the in vitro inhibiting activity of the compounds of the invention on the enzyme 11βHSD1 by virtue of an SPA (Scintillation Proximity Assay) test in 384-well format. The recombinant 11βHSD1 protein was produced in the yeast S. cerevisiae. The reaction was carried out by incubating the enzyme in the presence of ^3H-cortisone and of NADPH, in the absence or in the presence of an increasing concentration of inhibitor. SPA beads coupled to an antimouse antibody, which are preincubated with an anticortisol antibody, made it possible to measure the amount of cortisol formed during the reaction.

11βHSD1 in the eyes = target: T2, 11βHSD1 in the eyes (Homo sapiens, UniProt P28845); settings: healthy volunteers, treatment for seven days; cited from earlier work
T2 construct: The 11βHSD1 is located in the nonpigmented epithelial calls; host or cells: healthy volunteers (in vivo, ocular tissue)
T2 sequence (P28845 whole entry): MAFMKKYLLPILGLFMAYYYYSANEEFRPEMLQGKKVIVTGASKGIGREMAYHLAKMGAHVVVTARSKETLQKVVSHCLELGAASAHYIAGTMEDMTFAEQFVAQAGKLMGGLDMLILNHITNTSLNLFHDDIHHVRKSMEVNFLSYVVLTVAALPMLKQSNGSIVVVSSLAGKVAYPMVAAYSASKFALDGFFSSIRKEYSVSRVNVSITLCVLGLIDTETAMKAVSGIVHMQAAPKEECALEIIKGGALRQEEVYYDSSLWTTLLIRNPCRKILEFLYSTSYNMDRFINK

T1 sequence (P28845 whole entry, species assumed): as the sequence (P28845 whole entry) above

| Structure (SMILES) | IC50 [1] [nM] | melting point [°C] | reduction of the intraocular pressure (IOP) (11βHSD1 in the eyes) [%] |
| --- | --- | --- | --- |
| O=C(NC1C2CC3CC(C2)CC1C3)N1CCN(c2ccc(OCc3ncccn3)cc2)c2ccccc21 (centres unmarked) [Compound No. 3, 4-[4-(Pyrimidin-2-ylmethoxy)Phenyl]-3,4-dihydro-2H-quinoxaline-1-carboxylic Acid adamantan-2-ylamide] | 405 | 123 to 125 |  |
| CS(=O)(=O)N1CCC(O)(c2ccc(N3CCN(C(=O)N[C@H]4C5CC6CC4C[C@@](O)(C6)C5)c4ccccc43)cc2)CC1 [Compound No. 16, Trans-4-[4-(4-Hydroxy-1-(methanesulphonyl)Piperidin-4-yl)Phenyl]-3,4-dihydro-2H-quinoxaline-1-carboxylic Acid (5-hydroxy-adamantan-2-yl)Amide] | 28 | 160 |  |
| CS(=O)(=O)N1CCN(c2ccc(N3CCN(C(=O)N[C@H]4C5CC6CC4C[C@@](CO)(C6)C5)c4ccccc43)cc2)CC1 [Compound No. 21, Trans-4-[4-(4-(Methanesulphonyl)Piperazin-1-yl)Phenyl]-3,4-dihydro-2H-quinoxaline-1-carboxylic Acid (5-(hydroxymethyl)Adamantan-2-yl)Amide] |  | 160 |  |
| CS(=O)(=O)N1CCN(c2ccc(N3CCN(C(=O)N[C@H]4C5CC6CC4C[C@@](F)(C6)C5)c4ccccc43)cc2)CC1 [Compound No. 40, Trans-4-[4-(4-(Methanesulphonyl)Piperazin-1-yl)Phenyl]-3,4-dihydro-2H-quinoxaline-1-carboxylic Acid (5-fluoroadamantan-2-yl)Amide] |  | 165 to 200 |  |
| O=C(N[C@H]1C2CC3CC1C[C@@](O)(C3)C2)N1CCN(c2ccc(N3CCC(O)CC3)cc2)c2ccccc21 [Compound No. 51, Trans-4-[4-(4-Hydroxypiperidin-1-yl)Phenyl]-3,4-dihydro-2H-quinoxaline-1-carboxylic Acid (5-hydroxyadamantan-2-yl)Amide] |  | 131 |  |
| CC(=O)N[C@]12CC3CC(C1)[C@H](NC(=O)N1CCN(c4ccc(N5CCN(S(C)(=O)=O)CC5)cc4)c4ccccc41)C(C3)C2 [Compound No. 137, Trans-4-[4-(4-(Methanesulphonyl)Piperazin-1-yl)Phenyl]-3,4-dihydro-2H-quinoxaline-1-carboxylic Acid (5-acetylaminoadamantan-2-yl)Amide] | 130 | 250 |  |
| CCS(=O)(=O)N1CCN(c2ccc(N3CCN(C(=O)N[C@H]4C5CC6CC4C[C@@](C(N)=O)(C6)C5)c4ccccc43)nc2)CC1 [Compound No. 149, Trans-4-[5-(4-(Ethanesulphonyl)Piperazin-1-yl)Pyridin-2-yl]-3,4-dihydro-2H-quinoxaline-1-carboxylic Acid (5-carbamoyladamantan-2-yl)Amide] |  | 175 |  |
| CC1(C)[C@@H](OC(=O)CCC(=O)O)CC[C@]2(C)[C@H]3C(=O)C=C4[C@@H]5C[C@@](C)(C(=O)O)CC[C@]5(C)CC[C@@]4(C)[C@]3(C)CC[C@@H]12 [carbenoxolone] |  |  | 18 |
| O=C(c1ccc(-c2csc(N3CCN(C(=O)NC4C5CC6CC(C5)CC4C6)c4ccccc43)n2)cc1)N1CCOCC1 (centres unmarked) [compound 6] | 624 | 163 to 169 |  |
| O=C(NC1C2CC3CC1CC(O)(C3)C2)N1CCN(c2ccc(Oc3nccc(C(F)(F)F)n3)cc2)c2ccccc21 (centres unmarked) [compound 14] | 28 | 197 |  |
| CS(=O)(=O)N1CC=C(c2ccc(N3CCN(C(=O)NC4C5CC6CC4CC(O)(C6)C5)c4ccccc43)cc2)CC1 (centres unmarked) [compound 15] | 49 | 103 |  |
| CC(C)N1CCN(C(=O)c2ccc(-c3ccc(N4CCN(C(=O)NC5C6CC7CC5CC(O)(C7)C6)c5ccccc54)cc3)nc2)CC1 (centres unmarked) [compound 27] | 17 | 127 |  |
| O=C(NC1C2CC3CC1CC(O)(C3)C2)N1CCN(c2ccc(N3CCC(F)(F)CC3)cc2)c2ccccc21 (centres unmarked) [compound 30] | 94 | 95 |  |
| CCS(=O)(=O)N1CCN(c2ccc(N3CCN(C(=O)N[C@H]4C5CC6CC4C[C@@](O)(C6)C5)c4ccccc43)cc2)CC1 [compound 34, trans-4-[4-(4-(Ethanesulphonyl)Piperazin-1-yl)Phenyl]-3,4-dihydro-2H-quinoxaline-1-carboxylic Acid (5-hydroxyadamantan-2-yl)Amide] |  | 138 to 160 |  |
| CC(C)Oc1ccc(-c2ccc(N3CCN(C(=O)NC4C5CC6CC4CC(C(N)=O)(C6)C5)c4ccccc43)cc2)nc1 (centres unmarked) [compound 85] | 7 | 193 to 194 |  |
| NC(=O)C12CC3CC(C1)C(NC(=O)N1CCN(c4ccc(N5CCN(S(=O)(=O)C6CCNCC6)CC5)cc4)c4ccccc41)C(C3)C2 (centres unmarked) [compound 95] | 8 | 230 |  |
| CC(C)(C)N1CCN(c2ccc(N3CCN(C(=O)NC4C5CC6CC4CC(C(N)=O)(C6)C5)c4ccccc43)cc2)CC1 (centres unmarked) [compound 96] | 19 | 228 |  |
| O=C(NC1C2CC3CC1CC(O)(C3)C2)N1CCN(c2ccc(N3CCN(C4CC4)CC3)cn2)c2ccccc21 (centres unmarked) [compound 118] | 8 | 161 |  |
| O=C(NC1C2CC3CC1CC(O)(C3)C2)N1CCN(c2ccc(N3CCN(S(=O)(=O)C4CCC4)CC3)cn2)c2ccccc21 (centres unmarked) [compound 119] | 7 | 188 |  |
| COCCOCCS(=O)(=O)N1CCN(c2ccc(N3CCN(C(=O)NC4C5CC6CC4CC(C(N)=O)(C6)C5)c4ccccc43)cc2)CC1 (centres unmarked) [compound 125] | 7 |  |  |
| CC(C)(C)N1CCN(c2ccc(N3CCN(C(=O)NC4C5CC6CC4CC(C(N)=O)(C6)C5)c4ccccc43)nc2)CC1 (centres unmarked) [compound 128] | 4 |  |  |
| CS(=O)(=O)N1CCC2(CCN(c3ccc(N4CCN(C(=O)NC5C6CC7CC5CC(O)(C7)C6)c5ccccc54)cc3)C2)C1 (centres unmarked) [compound 132] | 187 | 127 |  |
| CC(C)(CO)N1CCN(c2ccc(N3CCN(C(=O)N[C@H]4C5CC6CC4C[C@@](C(N)=O)(C6)C5)c4ccccc43)cc2)CC1 [compound 152, Trans-4-{4-[4-(2-Hydroxy-1,1-dimethylethyl)Piperazin-1-yl]phenyl}-3,4-dihydro-2H-quinoxaline-1-carboxylic Acid (5-carbamoyladamantan-2-yl)Amide] |  | 194 to 200 |  |
| CC(C)CN1CCN(c2ccc(N3CCN(C(=O)N[C@H]4C5CC6CC4C[C@@](C(N)=O)(C6)C5)c4ccccc43)nc2)CC1 [compound 158, Trans-4-[5-(4-Isobutylpiperazin-1-yl)Pyridin-2-yl]-3,4-dihydro-2H-quinoxaline-1-carboxylic Acid (5-carbamoyladamantan-2-yl)Amide] |  | 209 |  |
| N#C[C@]12CC3CC(C1)[C@H](NC(=O)N1CCN(c4ccc(N5CCN(S(=O)(=O)C6CC6)CC5)cn4)c4ccccc41)C(C3)C2 [compound 165, Trans-4-[5-(4-(Cyclopropanesulphonyl)Piperazin-1-yl)Pyridin-2-yl]-3,4-dihydro-2H-quinoxaline-1-carboxylic Acid (5-cyanoadamantan-2-yl)Amide] |  | 188 |  |
| CC(C)(C)N1CCC(c2ccc(N3CCN(C(=O)N[C@H]4C5CC6CC4C[C@@](C(N)=O)(C6)C5)c4ccccc43)nc2)CC1 [compound 170, Trans-4-(1′-(tert-Butyl)-1′,2′,3′,4′,5′,6′-hexahydro-[3,4′]bipyridinyl-6-yl)-3,4-dihydro-2H-quinoxaline-1-carboxylic Acid (5-carbamoyladamantan-2-yl)Amide] |  | 228 |  |
| CS(=O)(=O)CCN1CCN(c2ccc(N3CCN(C(=O)N[C@H]4C5CC6CC4C[C@@](C(N)=O)(C6)C5)c4ccccc43)nc2)CC1 [compound 178, Trans-4-{5-[4-(2-(Methanesulphonyl)Ethyl)Piperazin-1-yl]-pyridin-2-yl}-3,4-dihydro-2H-quinoxaline-1-carboxylic Acid (5-carbamoyladamantan-2-yl)Amide] |  | 204 |  |
